This note sets out measurements from patent US5760036A, “Aminediol protease inhibitors” (E. R. Squibb & Sons, Inc., priority 1995, dated 1998).

This test has as its target T1, HIV protease (Human immunodeficiency virus type 1 group M subtype B, UniProt P04585).
T1 construct: and purified protease
The test is described as follows: HIV Protease Assay. Type of test: biochemical. The method, boiled down: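 Purified protease cleaved 450 μM octapeptide substrate in 50 mM sodium acetate pH 5.5 with 100 μg/ml BSA for 30 minutes at 37° C; product analyzed by reverse-phase HPLC at UV220 after H3PO4 quench. Inhibitors tested at final 10 μM with 4% DMSO.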

Setting [1] is: pH 5.5, 10 μM inhibitor, 4% DMSO, 450 μM substrate, pH 5.5, 30 minutes at 37° C., RP-HPLC, read-out: HIV Protease % Inhibition at 10 μM.

Where a name gives a salt, the structure may show the parent alone. Read-outs that look alike come from different tables or passages of the source. Bounds are passed on as bounds.

With `CC(C)[C@H](NC(=O)OCc1ccccc1)C(=O)N[C@@H](Cc1ccccc1)[C@@H](O)CNC[C@@H](O)[C@H](Cc1ccccc1)NC(=O)OC(C)(C)C` [Compound 115, [S-[1R*,2R*(2S*.3R*)]-N-[3-[[3-[[(1,1-Dimethylethoxy)carbonyl]amino]-2-hydroxy-4-phenylbutyl]amino]-2-hydroxy-1-phenylmethyl)propyl]-N^2-[(phenylmethoxy)-carbonyl]-L-valinamide], the inhibition at 10 µM under setting [1] stood at 58%.

Regarding `CC(C)[C@H](NC(=O)OCc1ccccc1)C(=O)N[C@@H](Cc1ccccc1)[C@@H](O)CNC[C@H](O)[C@H](Cc1ccccc1)NC(=O)OC(C)(C)C` [Compound 117, [S-[1R*,2R*(2R*,3R*)]]-N-[3-[[3-[[(1,1-Dimethylethoxy)carbonyl]amino]-2-hydroxy-4-phenylbutyl]amino]-2-hydroxy-1-(phenylmethyl)propyl]-N^2-[(phenylmethoxy)-carbonyl]-L-valinamide], the inhibition at 10 µM under setting [1] was found to be 14%. The same measure, in the same setting: for `CC(C)[C@H](NC(=O)OCc1ccccc1)C(=O)N[C@@H](Cc1ccccc1)[C@@H](O)CNC[C@H](O)[C@H](Cc1ccccc1)NC(=O)[C@@H](NC(=O)OCc1ccccc1)C(C)C` [Compound 119, [S-(1R*,2R*)]-N,N'-[Iminobisr[2-hydroxy-1-(phenylmethyl)-3,1-propanediyl]]bis[N^2-[phenylmethyloxy)carbonyl]-L-valinamidel] the value was 10%; for `CC(C)(C)CCN[C@@H](Cc1ccccc1)[C@H](O)CNC[C@@H](O)[C@H](Cc1ccccc1)NC(=O)OC(C)(C)C` [Compound 127, [1S-[1R*,2S*(2S*,3R*)]]-[3-[[3-[(3,3-Dimethylbutyl)amino]-2-hydroxy-4-phenylbutyl]amino]-2-hydroxy-1-(phenylmethyl)propyl]carbamic acid, 1,1-dimethylethyl ester], 15%; for `CN(C(=O)NC(C)(C)C)[C@@H](Cc1ccccc1)[C@H](O)CNC[C@@H](O)[C@H](Cc1ccccc1)NC(=O)OC(C)(C)C` [Compound 136, [1S-[1R*,2S*(2S*,3R*)]]-[3-[[3-[[[(1,1-Dimethylethyl)amino]carbonyl]methylamino]-2-hydroxy-4-phenylbutyl]amino]-2-hydroxy-1-(phenylmethyl))propyl]carbamic acid, 1,1-dimethylethyl ester], 73%. In the case of `CC(C)(C)COC(=O)N[C@@H](Cc1ccccc1)[C@H](O)CNC[C@@H](O)[C@H](Cc1ccccc1)NC(=O)OCC(C)(C)C` [Compound 139, [1S-(1R*,2S*)]-[Iminobis[2-hydroxy-1-(phenylmethyl)-3,1-propanediyl]]biscarbamic acid, bis(2,2-dimethylpropyl)ester], the inhibition at 10 µM (pH 5.5, read-out: HIV Protease % Inhibition at 10 μM) was found to be 73%. As to `CC(C)(C)OC(=O)N[C@@H](Cc1ccccc1)[C@H](O)CNC[C@@H](O)[C@H](Cc1ccccc1)N1CC(C)(C)OC1=O` [Compound 140, [1S-[1R*,2S*(2S*,3R*)]]-[3-[[3-(5,5-Dimethyl-2-oxo-3-oxazolidinyl)-2-hydroxy-4-phenylbutyl]amino]-2-hydroxy-1-(phenylmethyl)-propyl]carbamic acid, 1,1-dimethylethyl ester], the inhibition at 10 µM under setting [1] was 61%. Consider `CO[C@H](CNC[C@@H](O)[C@H](Cc1ccccc1)NC(=O)OC(C)(C)C)[C@H](Cc1ccccc1)NC(=O)OC(C)(C)C` [Compound 142, [1S-[1R*,2S*(2S*,3R*)]]-[3-[[3-[[(1,1-Dimethylethoxy)carbonyl]amino]-2-hydroxy-4-phenylbutyl]amino]-2-methoxy-1-(phenylmethyl)propyl]carbamic acid 1,1-dimethylethyl ester], for which the inhibition at 10 µM under setting [1] amounted to 30%. The same measure, in the same setting: for `CC(C)(C)OC(=O)N[C@@H](Cc1ccccc1)[C@H](O)CNC[C@@H](O)[C@H](Cc1ccccc1)NC(=O)OC(C)(C)COCc1ccccc1` [Compound 157, [1S-(1R*,2S*)]-[Iminobis[2-hydroxy-1-(phenylmethyl)-3,1-propanediyl)]biscarbamic acid, 1,1-dimethylethyl 1,1-dimethyl-2-(phenylmethoxy)-ethyl ester] the value was 90%; for `CC(C)(C)OC(=O)N[C@@H](Cc1ccccc1)[C@H](O)CNC[C@@H](O)[C@H](Cc1ccccc1)NC(=O)OC(C)(C)CCCN` [Compound 180, [1S-(1R*,2S*)]-[Iminobis[2-hydroxy-1-(phenylmethyl)-3,1-propanediyl]biscarbamic acid, 4-amino-1,1-dimethylbutyl 1,1-dimethylethyl ester, fumarate (2:3) salt], 73%.

For the compound `CC(C)(C)CS(=O)(=O)N[C@@H](Cc1ccccc1)[C@H](O)CNC[C@@H](O)[C@H](Cc1ccccc1)NC(=O)OC(C)(C)C` [Compound 181, [1S-[1R*,2S*(2S*,3R*)]]-[3-[[3-[[(2,2-Dimethy]propyl)sulfonyl]amino]-2-hydroxy-4-phenylbutyl]amino]-2-hydroxy-1-(phenylmethyl)propyl]carbamic acid 1,1-dimethylethyl ester], the inhibition at 10 µM under setting [1] worked out at 46%. Consider `CC(C)(C)OC(=O)N[C@@H](Cc1ccccc1)[C@H](O)CNC[C@@H](O)[C@H](Cc1ccccc1)N[S+]([O-])C(C)(C)C` (stereo partly drawn) [Compound 182, [1S-[1R*,2S*(2S*,3R*)]]-[3-[[(1,1-Dimethylethyl)-sulfinyl]amino-2-hydroxy-4-phenylbutyl]amino]2-hydroxy-1-(phenylmethyl)propyl]carbamic acid, 1,1-dimethylethyl ester], for which the inhibition at 10 µM under setting [1] was found to be 41%. As to `CC(C)(C)OC(=O)N[C@@H](Cc1ccccc1)[C@H](O)CNC[C@@H](O)[C@H](Cc1ccccc1)NS(=O)(=O)C(C)(C)C` [Compound 183, [1S-[1R*,2S*(2S*,3R*)]]-[3-[[3-[[(2,2-Dimethylethyl)sulfonyl]amino]-2-hydroxy-4-phenylbutyl]amino]-2-hydroxy-1-(phenylmethyl)proyl]carbamic acid, 1,1-dimethylethyl ester], the inhibition at 10 µM under setting [1] stood at 35%. The same measure, in the same setting: for `CC(C)(C)OC(=O)N[C@@H](Cc1ccccc1)[C@H](O)CN[C@H](Cc1ccccc1)[C@@H](O)CNC(=O)OCc1ccccc1` [Compound 185, [2S-[2R*,3S*(2S*,3R*)]]-[3-[[3-[[(1,1-Dimethylethoxy)carbonyl]amino-2-hydroxy-4-phenylbutyl]amino-2-hydroxy-4-phenylbutyl]carbamnic acid, phenylmethyl ester] the value was 5%; for `CC(C)(C)OC(=O)N[C@@H](Cc1ccccc1)[C@H](O)CN[C@@H](Cc1ccccc1)C(O)CNC(=O)OCc1ccccc1` (stereo partly drawn) [Compound 186, [3S-[3R*,2(R*,S*) [2S*,3R*)]-3-[[3-(1,1-Dimethylethoxy)carbonyl]amino]-2-hydroxy-4-phenylbutyl]amino]-2-hydroxy-4-phenylbuty 1]carbamic acid, phenylmethyl ester], 0%. On the same count and under the same terms, for `CC(C)(C)OC(=O)NC[C@H](O)[C@@H](Cc1ccccc1)NC[C@@H](O)[C@H](Cc1ccccc1)NC(=O)OC(C)(C)C` [Compound 187, [2S-[2R*,3S*(2S*,3R*)]]-[3-[[3-[[(1,1-Dimethylethoxy)carbonyl]amino]-2-hydroxy-4-phenylbutyl]amino]-2-hydroxy-4-phenylbutyl]carbamic acid, 1,1-dimethylethyl ester] the value was 28%; for `CC(C)(C)OC(=O)N[C@@H](Cc1ccccc1)[C@H](O)CN[C@H](Cc1ccccc1)[C@H](O)CNC(=O)OCc1ccccc1` [Compound 189, [2R-[2R*,3R*(2R*,3S*)]]-[3-[[3-[[(1,1-Dimethylethoxy)carbonyl]amino]-2-hydroxy-4-phenylbutyl]amino]-2-hydroxy-4-phenylbutyl]-carbamic acid, phenylmethyl ester], 23%. As to `CC(C)(C)OC(=O)NC[C@@H](O)[C@@H](Cc1ccccc1)NC[C@@H](O)[C@H](Cc1ccccc1)NC(=O)OC(C)(C)C` [Compound 190, [2R-[2R*,3R*(2R*,3S*)]]-[3-[[3-[[(1,1-Dimethylethoxy)carbonyl]amino]-2-hydroxy-4-phenyl-butyl]amino]-2-hydroxy-4-phenylbutyl]carbamic acid, 1,1-dimethylethyl ester], the inhibition at 10 µM under setting [1] was < 16%. The same measure, in the same setting: to `CC(C)(C)OC(=O)NCC(O)(CNC[C@@H](O)[C@H](Cc1ccccc1)NC(=O)OC(C)(C)C)Cc1ccccc1` (stereo partly drawn) [Compound 191, [1S-(1R*,2S*)]-[3-[[3-[[(1,1-Dimethylethoxy)carbonyl]amino]-2-hydroxy-2-(phenylmethyl)propyl]amino]-2-hydroxy-1-(phenylmethyl)propyl]carbamic acid, 1,1-dimethyl-ethyl ester] belongs 13%; to `CC(C)(C)OC(=O)N[C@@H](Cc1ccccc1)[C@H](O)CNCC(C)(O)[C@H](Cc1ccccc1)NC(=O)OC(C)(C)C` (stereo partly drawn) [Compound 192, [1S-[1R*,2S*(3R*)]]-[3-[[3-[[(1,1-Dimethylethoxy)carbonyl]amino]-2-hydroxy-2-methyl-4-phenylbutyl]amino]-2-hydroxy-1-(phenylmethyl)propyl]amino]carbamic acid, 1,1-dimethylethyl ester], 85%.

For `CC(C)(C)OC(=O)N[C@@H](Cc1ccccc1)C(=O)CNC[C@@H](O)[C@H](Cc1ccccc1)NC(=O)OC(C)(C)C` [Compound 193, [1S-[1R*,2S*(3R*)]]-[3-[[3-[[(1,1-Dimethylethoxy)carbonyl]amino]-2-oxo-4-phenylbutyl]amino]-2-hydroxy-1-(phenylmethyl)propyl]carbamic acid, 1,1-dimethylethyl ester], the inhibition at 10 µM under setting [1] was determined as 66%. In the case of `CC(C)(C)OC(=O)N[C@@H](Cc1ccccc1)C(=O)CN(Cc1ccccc1)CC(O)[C@H](Cc1ccccc1)NC(=O)OC(C)(C)C` (stereo partly drawn) [Compound 195, [1S-[1R*(3R*)]]-[3-[[3-[[(1,1-Dimethylethoxy)carbonyl]amino]-2-hydroxy-4-phenylbutyl]-(phenylmethyl)amino]-2-oxo-1-(phenylmethyl)propyl]-carbamic acid, 1,1-dimethylethyl ester], the inhibition at 10 µM under setting [1] came out at 0%.
